{"source": "patent US5374623A", "about": "“Cysteine protease inhibitors effective for in vivo use” (Prototek, Inc., priority 1992, dated 1994)", "assay_type_in_all_cases": "in vivo", "key": {"[1]": {"tested_on": "DBA/Lac mice injected with type II chick collagen", "test": "Type II collagen arthritis in mice, oral 3-25 mg/kg/day (Example 14)", "conditions": "gavage 3 to 25 mg/kg/day in phosphate buffered saline, day 21 to day 35; scale 0-3", "description": "DBA/Lac mice were injected with 200 μg of type II chick collagen emulsified in Complete Freund's Adjuvant on day 0 and on day 21. Mu-Phe-HPhe-O-Ph was suspended in phosphate buffered saline and administered by gavage from day 21 until sacrifice at day 35. Doses of between 3 mg/kg/day and 25 mg/kg/day were used, with the daily dosage being held constant over time for each test. The severity of joint inflammation was evaluated grossly at seven day intervals beginning on day 21. The effect of oral administration of Mu-Phe-HPhe-O-Ph on the severity of bone lesions in adjuvant-induced arthritis was determined by evaluating osseous mineralization, periostat proliferation, bone erosion, joint space narrowing and osseous fragmentation. All lesions were scored on a scale of 0 (normal architecture) to 3 (severe or marked changes). Values calculated were mean values ±1 std. error of the mean."}, "experimental gingivitis": {"tested_on": "experimental gingivitis", "test": "Experimental gingivitis in human subjects", "conditions": "twenty human subjects, inhibitor placed at test sites and sealed with Coe-pak for a week, blind, placebo control", "text": "Treatment of Gingivitis with Mu-Phe-HPhe-O-Ph. The effect of the inhibitor on gingival inflammation was studied by investigating its ability to prevent the development of experimental gingivitis. Twenty human subjects with healthy gingiva and no periodontal disease were recruited. The subjects received oral hygiene instruction and scaling prior to baseline. The test sites were the mesibuccal crevices on the upper first and second molars and premolars (bicuspids). Acrylic shields were made to cover the gingival margins of these teeth and were worn during oral hygiene to prevent brushing of the test and control sites. During the test period of three weeks the subjects were told to brush only the lower teeth and upper anteriors and to ear the shields during brushing. The left side was used as the test side and the right was the control side in 10 subjects. The sides were reversed in the other 10 subjects so the subjects could act as their own controls. Thirty second GCF samples were taken prior to clinical measurements at baseline and at 1, 2, 3 and 4 weeks. These were assayed for cathepsins B and L-like activities. Clinical measurements of gingival index (GI), gingival bleeding index (GBI) and plaque index (PLI) were taken at test and control sites at zero, one, two, three and four weeks. […]"}, "[2]": {"tested_on": "DBA/Lac mice injected with type II chick collagen", "test": "Type II collagen arthritis in mice, oral 10 mg/kg/day (Example 13)", "conditions": "gavage 10 mg/kg/day, day 21 to day 49", "description": "DBA/Lac mice were injected with 200 μg of type II chick collagen emulsified in Freund's complete adjuvant on day 0 and on day 21. Mu-Phe-HPhe-O-Ph was suspended in an ethanol solution which was then diluted to 10% (aq) and administered by gavage at a dose of 10 mg/kg/day from day 21 until sacrifice at day 49. The severity of joint inflammation was evaluated grossly at seven day intervals beginning on day 21. The effect of oral administration of Mu-Phe-HPhe-O-Ph on the severity of bone lesions in adjuvant-induced arthritis wa determined by evaluating osseous mineralization, periostat proliferation, bone erosion, joint space narrowing and osseous fragmentation. All lesions were scored on a scale of 0 (normal architecture) to 3 (severe or marked changes). Values calculated were means values ±1 std. error of the mean. […] The effect of oral administration of Mu-Phe-HPhe-O-Ph on the histological aspects of adjuvant-induced arthritis was determined by evaluating inflammation, focul ulcers, tibiotarsal joint cartilage destruction, bone destruction and periosteal proliferation. Inflammation was scored on a scale of 0 (no inflammation) to 3 (severe) based on the extent of edema and cell infiltration. Focul ulcer cartilage destruction was measured as the percent of articular cartilage surfaces with focal destruction which exposed underlying subchondral bone. […]"}}}
{"molecule": "O=C(O)Cc1ccccc1OCC(=O)[C@H](CCc1ccccc1)NC(=O)[C@H](Cc1ccccc1)NC(=O)N1CCOCC1", "note": "[Mu-Phe-HPhe-O-Ph, (4-morpholinylcarbonyl)-L-phenylalanyl-L-homophenylalanyl-(2-carboxymethyl)phenoxymethyl ketone]", "values": [{"measurement": "bone lesion severity values vs control animals", "setting": "[1]", "result": "significantly (p<0.05) lower than the values of control animals"}, {"measurement": "GI, GBI, PLI and cysteine proteinase levels at test vs control sites", "setting": "experimental gingivitis", "result": "reduced all parameters tested at the test sites"}, {"measurement": "histological aspects values vs control animals", "setting": "[2]; inflammation, focul ulcers, tibiotarsal joint cartilage destruction, bone destruction, periosteal proliferation", "result": "significantly (p<0.05) lower than the values of control animals"}, {"measurement": "bone lesion severity values vs control animals", "setting": "[2]; osseous mineralization, periostat proliferation, bone erosion, joint space narrowing, osseous fragmentation, scale 0-3", "result": "significantly (p<0.05) lower than the values of control animals"}]}
